Holding throughout (type): functional
For test [1], the system named is Mycobacterium tuberculosis. In words: Antimycobacterial activity against rifampin-resistant Mycobacterium tuberculosis assessed as growth inhibition by Alamar blue assay. A general note: Alamar Blue is a resazurin reagent that responds to reducing activity.
Test [2] deals with Mycobacterium tuberculosis. As to the kind of experiment: Antimycobacterial activity against kanamycin-resistant Mycobacterium tuberculosis assessed as growth inhibition by Alamar blue assay.
The test system of test [3] is Mycobacterium tuberculosis. As to the kind of experiment: Antimycobacterial activity against ethambutol-resistant Mycobacterium tuberculosis assessed as growth inhibition by Alamar blue assay.
In test [4] the test system is Mycobacterium tuberculosis. In words: Antimycobacterial activity against isoniazid-resistant Mycobacterium tuberculosis assessed as growth inhibition by Alamar blue assay.
For test [5], the system named is Mycobacterium tuberculosis. As to the kind of experiment: Antimycobacterial activity against ciprofloxacin-resistant Mycobacterium tuberculosis assessed as growth inhibition by Alamar blue assay.
The subject of test [6] is Mycobacterium tuberculosis. As to the kind of experiment: Antimycobacterial activity against thiacetazone-resistant Mycobacterium tuberculosis assessed as growth inhibition by Alamar blue assay.

The structures appear in SMILES notation. In brackets after ≈: the same amount, converted by molar mass.

For orientation: MIC90 means the lowest concentration that inhibits either 90% of growth or 90% of the strains tested, depending on the study.

Turning to `CCCCCCCCCCSc1ncnc2c1ncn2CC(=O)OCC`, the MIC90 in test [1] worked out at 6.25 mg/L (≈ 16.5 µM); in test [2], 6.25 mg/L (≈ 16.5 µM); in test [3], 6.25 mg/L (≈ 16.5 µM); in test [4], 12.5 mg/L (≈ 33 µM); in test [5], 12.5 mg/L (≈ 33 µM).

For `CCCCCCCCCCCCSc1ncnc2c1ncn2CC(=O)OCC`, the MIC90 in test [6] was 3.13 mg/L (≈ 7.7 µM); in test [1] it was 3.13 mg/L (≈ 7.7 µM); in test [3], 3.13 mg/L (≈ 7.7 µM); in test [4] it was 1.56 mg/L (≈ 3.84 µM); in test [5], 1.56 mg/L (≈ 3.84 µM).

For the origin of these results see ChEMBL document CHEMBL2346635, “6-Oxo and 6-thio purine analogs as antimycobacterial agents” (Bioorg Med Chem, 2013).
